Reference: ChEMBL document CHEMBL3885881, “DrugMatrix”

Species: Rattus norvegicus
Assay: DrugMatrix - Regimen: Daily Repeat
Format: toxicity, organism-based, Sprague-Dawley
Design: regimen Daily Repeat, gender Male, age 6-8 weeks
Conditions: in vivo, po, route oral GAVAGE, vehicle .5 % CMC; for ABSOLUTE BASOPHIL / ABSOLUTE EOSINOPHIL / ABSOLUTE LYMPHOCYTE / ABSOLUTE MONOCYTE / ABSOLUTE SEGMENTED NEUTROPHIL / BASOPHIL / EOSINOPHIL / ERYTHROCYTE COUNT / HEMATOCRIT / HEMOGLOBIN / LEUKOCYTE COUNT / LYMPHOCYTE / MEAN CORPUSCULAR HEMOGLOBIN / MEAN CORPUSCULAR HEMOGLOBIN CONCENTRATION / MEAN CORPUSCULAR VOLUME / MONOCYTE / NEUTROPHIL / NUCLEATED RED BLOOD CELLS / PLATELET COUNT: tissue Blood; for ALANINE AMINOTRANSFERASE / ALBUMIN / ALKALINE PHOSPHATASE / ASPARTATE AMINOTRANSFERASE / BLOOD UREA NITROGEN / CARBON DIOXIDE / CHLORIDE / CHOLESTEROL / CREATINE PHOSPHOKINASE / CREATININE / GLUCOSE / LACTATE DEHYDROGENASE / LIPASE / PHOSPHORUS / POTASSIUM / SODIUM / TOTAL BILIRUBIN / TOTAL PROTEIN / URIC ACID: tissue Plasma
[1] = 170 mg/kg, 72 h, dose level Low, time 3 day
[2] = 170 mg/kg, 120 h, dose level Low, time 5 day
[3] = 1700 mg/kg, 72 h, dose level High, time 3 day
[4] = 1700 mg/kg, 120 h, dose level High, time 5 day

SMILES: O=C(O)c1ccccc1 [BENZOIC ACID]
- ABSOLUTE BASOPHIL [1]: 0 CELLS/uL
- ABSOLUTE EOSINOPHIL [1]: 0 CELLS/uL
- ABSOLUTE LYMPHOCYTE [1]: 11616 CELLS/uL
- ABSOLUTE MONOCYTE [1]: 0 CELLS/uL
- ABSOLUTE SEGMENTED NEUTROPHIL [1]: 1417.33 CELLS/uL
- BASOPHIL [1]: 0%
- EOSINOPHIL [1]: 0%
- ERYTHROCYTE COUNT [1]: 5.44 x10E6/uL
- HEMATOCRIT [1]: 34.03%
- HEMOGLOBIN [1]: 13.07 G/DL
- LEUKOCYTE COUNT [1]: 13.03 x10E3/uL
- LYMPHOCYTE [1]: 89.33%
- MEAN CORPUSCULAR HEMOGLOBIN [1]: 24.03 pg
- MEAN CORPUSCULAR HEMOGLOBIN CONCENTRATION [1]: 38.4 G/DL
- MEAN CORPUSCULAR VOLUME [1]: 62.6 fL
- MONOCYTE [1]: 0%
- NEUTROPHIL [1]: 10.67%
- NUCLEATED RED BLOOD CELLS [1]: 0 /100WBC
- PLATELET COUNT [1]: 1319.33 x10E3/uL
- ALANINE AMINOTRANSFERASE [1]: 59.67 u/L
- ALBUMIN [1]: 4.13 G/DL
- ALKALINE PHOSPHATASE [1]: 380 u/L
- ASPARTATE AMINOTRANSFERASE [1]: 88 u/L
- BLOOD UREA NITROGEN [1]: 17 mg/dL
- CARBON DIOXIDE [1]: 29.33 mmol/L
- CHLORIDE [1]: 100.67 MEQ/L
- CHOLESTEROL [1]: 99 mg/dL
- CREATINE PHOSPHOKINASE [1]: 286 u/L
- CREATININE [1]: 0.23 mg/dL
- GLUCOSE [1]: 150 mg/dL
- LACTATE DEHYDROGENASE [1]: 280 u/L
- LIPASE [1]: 10 u/L
- PHOSPHORUS [1]: 13.27 mg/dL
- POTASSIUM [1]: 6.52 MEQ/L
- SODIUM [1]: 146.37 MEQ/L
- TOTAL BILIRUBIN [1]: 0.17 mg/dL
- TOTAL PROTEIN [1]: 5.97 G/DL
- URIC ACID [1]: 1.6 mg/dL
- ABSOLUTE BASOPHIL [2]: 0 CELLS/uL
- ABSOLUTE EOSINOPHIL [2]: 64 CELLS/uL
- ABSOLUTE LYMPHOCYTE [2]: 17040 CELLS/uL
- ABSOLUTE MONOCYTE [2]: 0 CELLS/uL
- ABSOLUTE SEGMENTED NEUTROPHIL [2]: 1696 CELLS/uL
- BASOPHIL [2]: 0%
- EOSINOPHIL [2]: 0.33%
- ERYTHROCYTE COUNT [2]: 5.48 x10E6/uL
- HEMATOCRIT [2]: 35.33%
- HEMOGLOBIN [2]: 13.8 G/DL
- LEUKOCYTE COUNT [2]: 18.8 x10E3/uL
- LYMPHOCYTE [2]: 90.67%
- MEAN CORPUSCULAR HEMOGLOBIN [2]: 25.23 pg
- MEAN CORPUSCULAR HEMOGLOBIN CONCENTRATION [2]: 39.07 G/DL
- MEAN CORPUSCULAR VOLUME [2]: 64.5 fL
- MONOCYTE [2]: 0%
- NEUTROPHIL [2]: 9%
- NUCLEATED RED BLOOD CELLS [2]: 0 /100WBC
- PLATELET COUNT [2]: 1165 x10E3/uL
- ALANINE AMINOTRANSFERASE [2]: 57.33 u/L
- ALBUMIN [2]: 4.23 G/DL
- ALKALINE PHOSPHATASE [2]: 352 u/L
- ASPARTATE AMINOTRANSFERASE [2]: 96.67 u/L
- BLOOD UREA NITROGEN [2]: 15.67 mg/dL
- CARBON DIOXIDE [2]: 24 mmol/L
- CHLORIDE [2]: 103.67 MEQ/L
- CHOLESTEROL [2]: 79 mg/dL
- CREATINE PHOSPHOKINASE [2]: 445 u/L
- CREATININE [2]: 0.21 mg/dL
- GLUCOSE [2]: 164.67 mg/dL
- LACTATE DEHYDROGENASE [2]: 554.67 u/L
- LIPASE [2]: 9.67 u/L
- PHOSPHORUS [2]: 12.87 mg/dL
- POTASSIUM [2]: 6.28 MEQ/L
- SODIUM [2]: 144.9 MEQ/L
- TOTAL BILIRUBIN [2]: 0.23 mg/dL
- TOTAL PROTEIN [2]: 6.17 G/DL
- URIC ACID [2]: 2.2 mg/dL
- ABSOLUTE BASOPHIL [3]: 0 CELLS/uL
- ABSOLUTE EOSINOPHIL [3]: 95.33 CELLS/uL
- ABSOLUTE LYMPHOCYTE [3]: 13599.67 CELLS/uL
- ABSOLUTE MONOCYTE [3]: 51.33 CELLS/uL
- ABSOLUTE SEGMENTED NEUTROPHIL [3]: 1753.67 CELLS/uL
- BASOPHIL [3]: 0%
- EOSINOPHIL [3]: 0.67%
- ERYTHROCYTE COUNT [3]: 6 x10E6/uL
- HEMATOCRIT [3]: 35.93%
- HEMOGLOBIN [3]: 14.17 G/DL
- LEUKOCYTE COUNT [3]: 15.5 x10E3/uL
- LYMPHOCYTE [3]: 87.67%
- MEAN CORPUSCULAR HEMOGLOBIN [3]: 23.6 pg
- MEAN CORPUSCULAR HEMOGLOBIN CONCENTRATION [3]: 39.43 G/DL
- MEAN CORPUSCULAR VOLUME [3]: 59.9 fL
- MONOCYTE [3]: 0.33%
- NEUTROPHIL [3]: 11.33%
- NUCLEATED RED BLOOD CELLS [3]: 0 /100WBC
- PLATELET COUNT [3]: 1304 x10E3/uL
- ALANINE AMINOTRANSFERASE [3]: 84.67 u/L
- ALBUMIN [3]: 4.3 G/DL
- ALKALINE PHOSPHATASE [3]: 341.67 u/L
- ASPARTATE AMINOTRANSFERASE [3]: 125.33 u/L
- BLOOD UREA NITROGEN [3]: 16 mg/dL
- CARBON DIOXIDE [3]: 30.67 mmol/L
- CHLORIDE [3]: 97.33 MEQ/L
- CHOLESTEROL [3]: 63.67 mg/dL
- CREATINE PHOSPHOKINASE [3]: 240.33 u/L
- CREATININE [3]: 0.2 mg/dL
- GLUCOSE [3]: 149 mg/dL
- LACTATE DEHYDROGENASE [3]: 314.33 u/L
- LIPASE [3]: 9.33 u/L
- PHOSPHORUS [3]: 13.87 mg/dL
- POTASSIUM [3]: 6.31 MEQ/L
- SODIUM [3]: 144.83 MEQ/L
- TOTAL BILIRUBIN [3]: 0.23 mg/dL
- TOTAL PROTEIN [3]: 5.73 G/DL
- URIC ACID [3]: 1.6 mg/dL
- ABSOLUTE BASOPHIL [4]: 0 CELLS/uL
- ABSOLUTE EOSINOPHIL [4]: 54.33 CELLS/uL
- ABSOLUTE LYMPHOCYTE [4]: 15272.67 CELLS/uL
- ABSOLUTE MONOCYTE [4]: 230 CELLS/uL
- ABSOLUTE SEGMENTED NEUTROPHIL [4]: 2109.67 CELLS/uL
- BASOPHIL [4]: 0%
- EOSINOPHIL [4]: 0.33%
- ERYTHROCYTE COUNT [4]: 5.71 x10E6/uL
- HEMATOCRIT [4]: 34.87%
- HEMOGLOBIN [4]: 14.07 G/DL
- LEUKOCYTE COUNT [4]: 17.67 x10E3/uL
- LYMPHOCYTE [4]: 86.33%
- MEAN CORPUSCULAR HEMOGLOBIN [4]: 24.67 pg
- MEAN CORPUSCULAR HEMOGLOBIN CONCENTRATION [4]: 40.33 G/DL
- MEAN CORPUSCULAR VOLUME [4]: 61.07 fL
- MONOCYTE [4]: 1.33%
- NEUTROPHIL [4]: 12%
- NUCLEATED RED BLOOD CELLS [4]: 0 /100WBC
- PLATELET COUNT [4]: 1192 x10E3/uL
- ALANINE AMINOTRANSFERASE [4]: 71 u/L
- ALBUMIN [4]: 4.37 G/DL
- ALKALINE PHOSPHATASE [4]: 303 u/L
- ASPARTATE AMINOTRANSFERASE [4]: 113.33 u/L
- BLOOD UREA NITROGEN [4]: 18.67 mg/dL
- CARBON DIOXIDE [4]: 27.67 mmol/L
- CHLORIDE [4]: 103.33 MEQ/L
- CHOLESTEROL [4]: 67.33 mg/dL
- CREATINE PHOSPHOKINASE [4]: 298.67 u/L
- CREATININE [4]: 0.19 mg/dL
- GLUCOSE [4]: 164.33 mg/dL
- LACTATE DEHYDROGENASE [4]: 269.33 u/L
- LIPASE [4]: 10 u/L
- PHOSPHORUS [4]: 14 mg/dL
- POTASSIUM [4]: 6.25 MEQ/L
- SODIUM [4]: 149.6 MEQ/L
- TOTAL BILIRUBIN [4]: 0.2 mg/dL
- TOTAL PROTEIN [4]: 5.8 G/DL
- URIC ACID [4]: 1.67 mg/dL
